Laboratory results taken from patent US20250171459A1, “2-METHYL-4',5'-DIHYDROSPIRO[PIPERIDINE-4,7'-THIENO[2,3-C]PYRAN] DERIVATIVES AS INHIBITORS OF APOL1 AND METHODS OF USING SAME” (Vertex Pharmaceuticals Incorporated, priority 2022, published 2025).

Target: T1, APOL1 (Homo sapiens, UniProt O14791)
T1 sequence (O14791 1-398 S342G/I384M): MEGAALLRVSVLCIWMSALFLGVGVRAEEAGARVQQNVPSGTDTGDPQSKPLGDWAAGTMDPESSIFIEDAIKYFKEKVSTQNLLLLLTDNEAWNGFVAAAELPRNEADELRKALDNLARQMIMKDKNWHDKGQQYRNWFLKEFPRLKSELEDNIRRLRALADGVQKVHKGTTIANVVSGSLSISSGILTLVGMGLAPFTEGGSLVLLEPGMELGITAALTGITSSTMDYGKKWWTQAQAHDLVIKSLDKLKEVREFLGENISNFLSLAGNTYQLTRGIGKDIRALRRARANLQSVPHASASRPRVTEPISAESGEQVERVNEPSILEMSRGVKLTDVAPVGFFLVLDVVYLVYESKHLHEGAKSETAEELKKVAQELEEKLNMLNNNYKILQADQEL
Assay: MultiTox-Fluor Multiplex Cytotoxicity Assay in tet-inducible APOL1 T-REx-HEK293 cells (cell rescue, ratio of dead to live cells)
Format: cell-based
Details: tet-inducible transgenic APOL1 T-REx-HEK293 cell lines, 50 ng/mL tet, 24 hours; read-out: IP50 (i.e., IC50 for cell proliferation)
Outline: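 T-REx-HEK293 cells with tet-inducible APOL1 were treated with compound (10 μM top, 10-point 3-fold dilution, duplicate) plus 50 ng/mL tetracycline for 24 h at 37° C, in DMEM with 2% tet-free FBS. MultiTox-Fluor protease signals gave a dead/live ratio, normalized to no tet (100% viability) and tet alone (0%).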

CCc1cc2c(s1)CCOC21CCN(Cc2ccc(S(C)(=O)=O)cc2)CC1 [Compound 1148] gave an IC50 of 500 to 1000 nM.
In the case of CCc1cc2c(s1)CCO[C@@]21CCN(Cc2cn(Cc3cnn(CCO)c3)nn2)[C@@H](C)C1 [Compound 60], the IC50 is reported as less than 100 nM.
With CCc1cc2c(s1)CCO[C@@]21CCN(CC2CN(C(=O)CCC3CCCC3)C2)[C@@H](C)C1 [Compound 434] the IC50 was less than 100 nM.
Compound CCc1cc2c(s1)CCO[C@@]21CCN(Cc2cnc(N[C@@H](C)C(C)(C)O)nc2)[C@@H](C)C1 [Compound 213] has an IC50 of less than 100 nM.
CCc1cc2c(s1)CCOC21CCN(Cc2cn(CC(O)C(C)(C)O)nn2)C(C)C1 (stereo not drawn) [Compound 124] showed an IC50 of less than 100 nM.
For CCc1cc2c(s1)CCO[C@@]21CCN(Cc2cn([C@H]3C[C@@H](S(C)(=O)=O)C3)nn2)[C@@H](C)C1 [Compound 19], the IC50 was 100 to 500 nM.
Compound CC(C)CN1CC[C@]2(C[C@@H]1C)OCCc1cc(CC(F)F)sc12 [Compound 581] has an IC50 of 100 to 500 nM.
For C[C@H]1C[C@@]2(CCN1Cc1cccn(C)c1=O)OCCc1cc(CC(F)F)sc12 [Compound 574], the IC50 was 500 to 1000 nM.
In the case of CCc1cc2c(s1)CCO[C@@]21CCN(Cc2cn(CC(C)COC)nn2)[C@@H](C)C1 (stereo partly drawn) [Compound 108], the IC50 is reported as 100 to 500 nM.
C[C@H]1C[C@@]2(CCN1Cc1cnn(CCS(C)(=O)=O)c1)OCC(O)c1cc(C(F)(F)C(F)F)sc12 (single isomer, unassigned) [Compound 1013] gave an IC50 of less than 100 nM.
Work on CCc1cc2c(s1)CCO[C@@]21CCN(Cc2ccc(N[C@@H](C)C(C)(C)O)nc2)[C@@H](C)C1 [Compound 211] yielded an IC50 of less than 100 nM.
Compound CCc1cc2c(s1)CCO[C@@]21CCN(Cc2cn(Cc3cn(C)nn3)nn2)[C@@H](C)C1 [Compound 179] has an IC50 of less than 100 nM.
Work on CCc1cc2c(s1)CCO[C@@]21CCN(Cc2cn(C3C[C@H](CO)NC3=O)nn2)[C@@H](C)C1 (stereo partly drawn) [Compound 196] yielded an IC50 of 100 to 500 nM.
CCOC(=O)C(C)(O)Cn1cc(CN2CC[C@]3(C[C@@H]2C)OCCc2c3sc(C(F)(F)F)c2CO)cn1 (stereo partly drawn) [Compound 988, Ethyl 2-hydroxy-3-[4-[[(2′S, 7R)-3-(hydroxymethyl)-2′-methyl-2-(trifluoromethyl)spiro[4,5-dihydrothieno[2,3-c]pyran-7,4′-piperidine]-1′-yl]methyl]pyrazol-1-yl]-2-methyl-propanoate] was tested, and the IC50 was less than 100 nM.
With CC(=O)N[C@H]1C[C@@H](CN2CC[C@]3(C[C@@H]2C)OCCc2cc(CC(F)F)sc23)C1 [Compound 558] the IC50 was less than 100 nM.
Compound Cc1sc2c(c1C)[C@]1(CCN(Cc3cnn(C)c3)[C@@H](C)C1)OCC2 [Compound 519, (2′S,4R)-2,2′,3-trimethyl-1′-[(1-methylpyrazol-4-yl)methyl]spiro[6,7-dihydrothieno[3,2-c]pyran-4,4′-piperidine]] has an IC50 of less than 100 nM.
C[C@H]1C[C@@]2(CCN1Cc1cn(CC(O)C(C)(C)O)nn1)OC[C@@](O)(C(F)F)c1cc(Cl)sc12 (stereo partly drawn) [Compound 836, 1-[4-[[(2′S,4R,7R)-2-chloro-4-(difluoromethyl)-4-hydroxy-2′-methyl-spiro[5H-thieno[2,3-c]pyran-7,4′-piperidine]-1′-yl]methyl]triazol-1-yl]-3-methyl-butane-2,3-diol] was tested, and the IC50 was less than 100 nM.
CCc1cc2c(s1)CCOC21CCN(Cc2cnn(C)c2)C2(CCC2)C1 (stereo not drawn) [Compound 1042, 2″-ethyl-1′-((1-methyl-1H-pyrazol-4-yl)methyl)-6″,7″-dihydrodispiro[cyclobutane-1,2′-piperidine-4′,4″-thieno[3,2-c]pyran]] showed an IC50 of 100 to 500 nM.
CCc1cc2c(s1)CCOC21CCN(CC2CCN(C(=O)OC(C)(C)C)CC2)CC1 [Compound 1150] was tested, and the IC50 was 500 to 1000 nM.
CCc1cc2c(s1)CCO[C@@]21CCN(C[C@H]2C[C@@H](NS(=O)(=O)Cc3cccc(C)c3)C2)[C@@H](C)C1 [Compound 393] was tested, and the IC50 was less than 100 nM.
With C[C@H]1C[C@@]2(CCN1Cc1cnn(C)c1)OCCc1cc(C(C)(C)C)sc12 [Compound 1020, (2S,4R)-2′-(tert-butyl)-2-methyl-1-((1-methyl-1H-pyrazol-4-yl)methyl)-4′,5′-dihydrospiro[piperidine-4,7′-thieno[2,3-c]pyran]] the IC50 was 500 to 1000 nM.
